Patent US20250368647A1, “NITROGEN CONTAINING CONDENSED 2,3-DIHYDROQUINAZOLINONE COMPOUNDS AS NAV1.8 INHIBITORS” (GLAXOSMITHKLINE INTELLECTUAL PROPERTY DEVELOPMENT LIMITED, priority 2022, published 2025)
Counter-ions that a name gives are not always drawn.

Biological target: human Nav1.8 (Homo sapiens (Human), UniProt Q9Y5Y9)
Assay: QPatch 48 HTX voltage-clamp electrophysiology, half inactivation state (V1/2) protocol, HEK293-Nav1.8 cells
Assay type: cell-based
Conditions: HEK293 cells expressing human Nav1.8, human Navβ1 and human TREK1, P2 current; for IC50: read-out: Nav1.8, pIC50 (converted)
Experimental: Human embryonic kidney 293 cells (HEK293) expressing human Nav1.8, human Navβ1 and human TREK1 (HEK293-Nav1.8) were grown in T150 cell culture flasks at 37° C., 5% CO2 incubator. HEK293-Nav1.8 were passaged every 2-3 days when confluency reached 80-90% in T150 cell culture flasks.
Pharmacological assessment of compounds of the invention was performed using the QPatch 48 HTX electrophysiological platform. HEK293-Nav1.8 cells were prepared on the day of use by removing culture media, washing in DPBS, adding Accutase (2 mL to cover the surface, aspirate 1 mL then 1-2 minutes at 37° C.) followed by addition of CHO-SFM II to stop the enzyme digestion and in order to obtain a suspension of 3×10^6 cell/mL.
Compounds of the invention were prepared in an extracellular solution of the following composition: NaCl (145 mM), KCl (4 mM), CaCl2) (2 mM), MgCl (2 mM), HEPES (1 mM), Glucose (10 mM), pH 7.4 with NaOH Osmolality 300 mOsM/L. An intracellular solution of the following composition was used: CsF (115 mM), CsCl (20 mM), NaCl (5 mM), EGTA (10 mM), HEPES (10 mM), Sucrose (20 mM), pH 7.2 with CsOH Osmolality 310 mOsm/L.
Utilizing the voltage-clamp mode in the QPatch 48 HTX system a half inactivation state voltage protocol (V1/2) was used to determine pharmacological activity of compounds of the invention at Nav1.8 ion channels. A V1/2 protocol was utilized with the following voltage steps: a holding voltage of −100 mV was established followed by a 20 ms voltage step to 0 mV (P1), followed by an inactivating voltage step at −46 mV for 8 seconds, followed by a step to −100 mV for 20 ms, before a 20 ms step to 0 mV (P2), then returned to the holding voltage of −100 mV. This voltage protocol was repeated at a frequency of every 15 seconds, the current magnitude was quantified at the P2 step throughout the recording. Inhibition of the measured current amplitude with compounds of the invention was analyzed by fitting a 4-6 points dose-response curve allowing determination of the fifty percent inhibition concentration (IC50). P2 currents were normalized according to measurements made at baseline (Baseline, vehicle only), after compound (Input, at each test concentration), and after positive reference compound (FullResponse, to achieve complete block), fit to the following equation: […]
To assess current run-down over the course of the experiment vehicle-only wells were utilized and the normalized current with vehicle-only (n.IVEH) was determined. To correct the compound response for run-down, the currents were corrected according to the following formula: […]
Compound inhibition was fitted to the following Hill Equation to estimate the half maximal inhibition concentration (IC50)
[formula] • where Y is the normalized run-down corrected inhibition relative to the vehicle control (equivalent to n.IRD_Correct), C the test compound concentration, IC50 the concentration of test compound to inhibit the sodium current by 50%, and h the Hill coefficient.

human Nav1.8, sequence (Q9Y5Y9 whole entry): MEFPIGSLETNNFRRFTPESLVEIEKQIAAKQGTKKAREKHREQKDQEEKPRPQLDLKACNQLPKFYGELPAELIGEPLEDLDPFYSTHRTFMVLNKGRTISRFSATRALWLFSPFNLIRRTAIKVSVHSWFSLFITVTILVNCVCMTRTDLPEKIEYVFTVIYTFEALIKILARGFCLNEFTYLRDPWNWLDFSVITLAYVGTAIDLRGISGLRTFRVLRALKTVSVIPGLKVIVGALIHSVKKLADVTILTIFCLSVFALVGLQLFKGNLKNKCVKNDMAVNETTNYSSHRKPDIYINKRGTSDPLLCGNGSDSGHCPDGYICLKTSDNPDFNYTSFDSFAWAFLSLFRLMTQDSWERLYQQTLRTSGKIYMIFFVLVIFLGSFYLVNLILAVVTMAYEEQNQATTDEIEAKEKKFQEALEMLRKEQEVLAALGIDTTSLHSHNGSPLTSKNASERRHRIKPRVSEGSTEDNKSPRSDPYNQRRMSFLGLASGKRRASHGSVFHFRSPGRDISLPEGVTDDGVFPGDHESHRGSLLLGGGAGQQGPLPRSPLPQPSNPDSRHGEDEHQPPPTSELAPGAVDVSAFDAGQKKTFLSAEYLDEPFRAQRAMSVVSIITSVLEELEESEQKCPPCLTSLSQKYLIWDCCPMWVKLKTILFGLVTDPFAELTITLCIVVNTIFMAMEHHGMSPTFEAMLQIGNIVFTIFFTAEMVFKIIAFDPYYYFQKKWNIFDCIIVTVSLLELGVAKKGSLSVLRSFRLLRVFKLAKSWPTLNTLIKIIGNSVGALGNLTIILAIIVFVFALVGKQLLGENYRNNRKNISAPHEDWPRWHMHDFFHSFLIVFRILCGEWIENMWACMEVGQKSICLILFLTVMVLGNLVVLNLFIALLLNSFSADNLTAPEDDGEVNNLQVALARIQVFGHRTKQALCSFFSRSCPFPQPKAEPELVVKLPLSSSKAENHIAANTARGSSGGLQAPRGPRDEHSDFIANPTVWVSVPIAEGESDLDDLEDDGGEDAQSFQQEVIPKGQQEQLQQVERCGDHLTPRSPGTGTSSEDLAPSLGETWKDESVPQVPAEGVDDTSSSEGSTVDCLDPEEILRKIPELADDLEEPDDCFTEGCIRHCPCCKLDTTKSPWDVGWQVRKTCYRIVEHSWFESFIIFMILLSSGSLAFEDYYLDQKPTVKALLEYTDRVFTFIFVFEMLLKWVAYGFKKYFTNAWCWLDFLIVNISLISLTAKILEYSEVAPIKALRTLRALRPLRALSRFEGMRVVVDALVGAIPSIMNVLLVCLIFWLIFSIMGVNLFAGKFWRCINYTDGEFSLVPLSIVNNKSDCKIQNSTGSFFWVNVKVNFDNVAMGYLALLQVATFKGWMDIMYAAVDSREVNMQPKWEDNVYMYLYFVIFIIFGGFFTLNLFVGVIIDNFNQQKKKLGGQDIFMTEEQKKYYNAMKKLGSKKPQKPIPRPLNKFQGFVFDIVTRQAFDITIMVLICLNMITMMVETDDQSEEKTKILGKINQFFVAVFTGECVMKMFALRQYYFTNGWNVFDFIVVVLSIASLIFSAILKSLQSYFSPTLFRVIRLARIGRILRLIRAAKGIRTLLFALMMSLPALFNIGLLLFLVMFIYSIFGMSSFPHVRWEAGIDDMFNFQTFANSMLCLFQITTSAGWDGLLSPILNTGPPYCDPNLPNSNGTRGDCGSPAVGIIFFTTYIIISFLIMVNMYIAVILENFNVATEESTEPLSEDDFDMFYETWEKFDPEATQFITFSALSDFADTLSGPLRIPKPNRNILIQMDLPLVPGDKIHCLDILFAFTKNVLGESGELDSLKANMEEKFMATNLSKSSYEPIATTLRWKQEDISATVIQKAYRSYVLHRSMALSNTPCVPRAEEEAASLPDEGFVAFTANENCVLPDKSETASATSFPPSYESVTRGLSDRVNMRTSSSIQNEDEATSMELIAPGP
human Nav1.8, sequence (Q07699 19-218 partner): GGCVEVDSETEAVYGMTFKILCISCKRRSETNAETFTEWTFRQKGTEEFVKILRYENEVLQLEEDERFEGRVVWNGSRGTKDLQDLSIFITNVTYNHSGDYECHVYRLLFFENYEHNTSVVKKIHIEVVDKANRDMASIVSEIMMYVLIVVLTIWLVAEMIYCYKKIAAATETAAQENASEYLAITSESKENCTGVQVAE

SMILES	Nav1.8, pIC50	IC50 [nM]
O=C1c2ccc(C(F)(F)F)cc2N2CN1c1ccc(=O)[nH]c1NCCCc1cc(F)ccc12 [Example 28, 8-Fluoro-3-(trifluoromethyl)-10,11,12,13-tetrahydro-19H-5,18-methanodibenzo[f,i]pyrido[2,3-b][1,4,8]triazocyclotridecine-15,19(14H)-dione]	7.5	
O=C1c2cc(C(F)(F)F)ccc2N2CN1c1ccc(=O)[nH]c1CCCCNc1cc(F)ccc12 [Example 25, 3^4-Fluoro-2^6-(trifluoromethyl)-1^1,1^2,2^1,2^2,2^3,2^4-hexahydro-4-aza-2(3,1)-quinazolina-1(5,6)-pyridina-3(1,2)-benzenacyclooctaphan-1^2,2^4-dione]	6.2	
Cc1c(F)ccc2c1CNCCc1[nH]c(=O)ccc1N1CN2c2cc(F)c(F)cc2C1=O.Cl [Example 68, 2,3,8-Trifluoro-9-methyl-10,11,12,13-tetrahydro-19H-5,18-methanodibenzo[c,f]pyrido[3,2-j][1,5,9]triazacyclotridecine-15,19(14H)-dione hydrochloride]	7.7	
CC1Cc2[nH]c(=O)ccc2N2CN(c3ccc(F)cc3CN1)c1cc(C(F)(F)F)c(F)cc1C2=O (racemic) [Example 123, 2,8-Difluoro-12-methyl-3-(trifluoromethyl)-10,11,12,13-tetrahydro-19H-5,18-methanodibenzo-[c,f]pyrido[3,2-j][1,5,9]triazacyclotridecine-15,19(14H)-dione hydrochloride]	6.1	
C[C@@H]1NCCCc2[nH]c(=O)ccc2N2CN(c3cc(C(F)(F)F)c(F)cc3C2=O)c2ccc(F)cc21 [Example 137, (4S)-2^6,3^4-Difluoro-4-methyl-2^7-(trifluoromethyl)-1^1,1^2,2^1,2^2,2^3,2^4-hexahydro-5-aza-2(3,1)-quinazolina-1(5,6)-pyridina-3(1,2)-benzenacyclooctaphane-1^2,2^4-dione]	6.6	
Cc1c(F)ccc2c1CNCCc1[nH]c(=O)ccc1N1CN2c2cc(C#N)c(F)cc2C1=O.Cl [Example 71, 2,8-Difluoro-9-methyl-15,19-dioxo-10,11,12,13,14,15-hexahydro-19H-518-methanodibenzo-[c,f]pyrido[3,2-j][1,5,9]triazacyclotridecine-3-carbonitrile hydrochloride]	7.6	
Cl.O=C1c2cc(F)c(F)cc2N2CN1c1ccc(=O)[nH]c1CCNCc1c(OC(F)F)cccc12 [Example 75, 9-(Difluoromethoxy)-2,3-difluoro-10,11,12,13-tetrahydro-19H-5,18-methanodibenzo[c,f]pyrido[3,2-j][1,5,9]triazacyclotridecine-15,19(14H)-dione hydrochloride]	5.4	
O=C1c2cc(C(F)(F)F)cnc2N2CN1c1ccc(=O)[nH]c1CCCCCc1cc(F)ccc12 [Example 23, 3^4-Fluoro-2^6-(trifluoromethyl)-1^1,1^2,2^1,2^2,2^3,2^4-hexahydro-2(3,1)-pyrido[2,3-d]pyrimidina-1(5,6)-pyridina-3(1,2)-benzenacyclooctaphane-1^2,2^4-dione]	7.2	
O=C1c2cc(C(F)(F)F)ccc2N2CN1c1ccc(=O)[nH]c1CNCCCc1cc(F)ccc12 [Example 104, 3^4-Fluoro-2^6-(trifluoromethyl)-1^1,1^2,2^1,2^2,2^3,2^4-hexahydro-7-aza-2(3,1)quinazolina-1(5,6)-pyridina-3(1,2)-benzenacyclooctaphane-1^2,2^4-dione]	6.9	
C[C@@H]1NCCc2[nH]c(=O)ccc2N2CN(c3ccc(C(F)(F)F)cc3C2=O)c2ccc(F)cc21 [Example 116, (10S)-8-fluoro-10-methyl-2-(trifluoromethyl)-10,11,12,13-tetrahydro-19H-5,18-methanodibenzo[c,f]pyrido[3,2-j][1,5,9]triazacyclotridecine-15,19(14H)-dione]		126
O=C1c2cc(C(F)(F)F)ccc2N2CN1c1cc(Cl)c(=O)[nH]c1NCCCc1cc(F)ccc12 [Example 29, 16-Chloro-8-fluoro-2-(trifluoromethyl)-10,11,12,13-tetrahydro-19H-5,18-methanodibenzo[f,i]pyrido[2,3,-b][1,4,8]triazacyclotridecine-15,19(14H)-dione]	7.1	
Cl.O=C1c2cc(F)c(C(F)(F)F)cc2N2CN1c1ccc(=O)[nH]c1CNCCCc1c2ccc(F)c1F [Example 106, 2^6,3^3,3^4-Trifluoro-2^7-(trifluoromethyl)-1^1,1^2,2^1,2^2,2^3,2^4-hexahydro-7-aza-2(3,1)-quinazolina-1(5,6)-pyridina-3(1,2)-benzenacyclooctaphane-1^2,2^4-dione hydrochloride]	8.1	
O=C1c2cc(F)c(F)cc2N2CN1c1ccc(=O)[nH]c1NCCCc1c2ccc(F)c1F [Example 98, 2,3,8,9-Tetrafluoro-10,11,12,13-tetrahydro-19H-5,18-methanodibenzo[f,i]pyrido[2,3-b]-[1,4,8]triazacyclotridecine-15,19(14H)-dione, formic acid salt]	7.6	
CCC1NCCc2[nH]c(=O)ccc2N2CN(c3cc(C(F)(F)F)c(F)cc3C2=O)c2ccc(F)cc21.Cl (centres unmarked) [Example 126, 10-Ethyl-2,8-difluoro-3-(trifluoromethyl)-10,11,12,13-tetrahydro-19H-5,18-methanodibenzo[c,f]pyrido[3,2-j][1,5,9]triazacyclotridecine-15,19(14H)-dione hydrochloride]	7	
Cc1c(F)ccc2c1CNCCc1[nH]c(=O)ccc1N1CN2c2cc(C(F)(F)F)c(F)cc2C1=O [Example 61, 2,8-Difluoro-9-methyl-3-(trifluoromethyl)-10,11,12,13-tetrahydro-19H-5,18-methanodibenzo[c,f]pyrido[3,2-j][1,5,9]triazacyclotridecine-15,19(14H)-dione hydrochloride]		3.98
CC1NCCc2[nH]c(=O)ccc2N2CN(c3ccc(C(F)(F)F)cc3C2=O)c2ccc(F)cc21 (racemic) [Example 114, 8-Fluoro-10-methyl-2-(trifluoromethyl)-10,11,12,13-tetrahydro-19H-5,18-methanodibenzo[c,f]-pyrido[3,2-j][1,5,9]triazacyclotridecine-15,19(14H)-dione hydrochloride]	6.8	
Cl.O=C1c2cc(F)c(F)cc2N2CN1c1ccc(=O)[nH]c1CCNCc1c2ccc(OC(F)(F)F)c1F [Example 87, 2,3,9-Trifluoro-8-(trifluoromethoxy)-10,11,12,13-tetrahydro-19H-5,18-methanodibenzo[c,f]pyrido[3,2-j][1,5,9]triazacyclotridecine-15,19(14H)-dione hydrochloride]	7.9	
O=C1c2ccc(C(F)(F)F)cc2N2CN1c1ccc(=O)[nH]c1C/C=C\Cc1cc(F)ccc12 [Example 5, 8-Fluoro-3-(trifluoromethyl)-10,13-dihydro-19H-5,18-methanodibenzo[b,l]pyrido[3,2f][1,5]diazacyclo tridecin-15,19(14H)-dione]	6.3	
CN1CCCc2cc(F)ccc2N2CN(C(=O)c3cc(C(F)(F)F)ccc32)c2ccc(=O)[nH]c21 [Example 30, 8-Fluoro-13-methyl-2-(trifluoromethyl)-10,11,12,13-tetrahydro-19H-5,18-methanodibenzo[f,i]pyrido[2,3,-b][1,4,8]triazacyclotridecine-15,19(14H)-dione]	6.9	
Cl.O=C1c2cc(F)c(C(F)(F)F)cc2N2CN1c1ccc(=O)[nH]c1CCNCc1c(F)cccc12 [Example 80, 2,9-Difluoro-3-(trifluoromethyl)-10,11,12,13-tetrahydro-19H-5,18-methanodibenzo-[c,f]pyrido[3,2-j][1,5,9]triazacyclotridecine-15,19(14H)-dione hydrochloride]	7.7	
